# According to US8580769B2, “Treatment of obesity, metabolic syndrome, and diabetes with protein kinase C inhibitors” (The United States of America as represented by the …, priority 2011, dated 2013):
# Tests used:
# [1] = system: aPKC immunoprecipitated from tissues previously stimulated by insulin; test: fully-activated aPKC immunoprecipitated from insulin-stimulated tissues; format: biochemical
# Method: aPKCι Assays: aPKC enzyme activity was measured as previously described (Standaert et al., J. Biol. Chem. 279:24929-24934, 2004; Sajan et al., J. Lipid Res. 50:1133-1145, 2009; Sajan et al., Diabetologia 52:1197-1207, 2009; Farese et al., J. Clin. Invest. 117:2289-2301, 2007). […] After incubation, ^32P-labeled substrate was trapped on P-81 filter paper and counted. […]
# Het-MλKO mice = test: clinical parameters in Het-MλKO mice (model of obesity/metabolic syndrome/T2DM); format: in vivo, mouse; conditions: ICAP-treated Mλ-Het KO mice (n = 12), 0.5 mg/kg body weight/day x 8 days s.c., mean ± SEM
# aPKC = test: insulin-stimulated tissue aPKC activity in wild type mice after a single ICAPP injection; format: in vivo, mouse; conditions: 1.5 mg/kg ICAPP s.c., 2-30 hours, insulin 1 U/kg
# Method: aPKCι Assays: aPKC enzyme activity was measured as previously described (Standaert et al., J. Biol. Chem. 279:24929-24934, 2004; Sajan et al., J. Lipid Res. 50:1133-1145, 2009; Sajan et al., Diabetologia 52:1197-1207, 2009; Farese et al., J. Clin. Invest. 117:2289-2301, 2007). In brief, aPKCs were immunoprecipitated from cell lysates with a rabbit polyclonal antiserum (Santa Cruz Biotechnologies) that recognizes the C-termini of both PKC-ζ and PKC-λ/ι (whereas mouse (Bandyopadhyay et al., Endocrinol. 141:4120-4127, 2000) and human (present findings) muscle contains mainly PKC-λ and PKC-ι, respectively, and little PKC-ζ, mouse and human liver contains substantial amounts of both PKC-ζ and PKC-λ (Sajan et al., J. Lipid Res. 50:1133-1145, 2009; Matsumoto et al., J. Clin. Invest. 112:935-944, 2003; and present results). Immunoprecipitates were collected on Sepharose-AG beads (Santa Cruz Biotechnologies), and beads were suspended and incubated for 8 minutes at 30° C. in 100 buffer containing 50 mM Tris/HCl (pH, 7.5), 100 μM Na3VO4, 100 μM Na4P2O7, 1 mM NaF, 100 μM PMSF, 4 μg phosphatidylserine (Sigma-Aldrich), 50 μM [γ-^32P]ATP (NEN Life Science Products/Perkin-Elmer, Waltham, Mass.), 5 mM MgCl2, and, as substrate, 40 μM serine analogue of the PKC-ε pseudosubstrate (BioSource/Invitrogen, Carlsbad, Calif.). After incubation, ^32P-labeled substrate was trapped on P-81 filter paper and counted. This assay reflects the specific activity of a constant amount of aPKC (even in Het-MλKO mice) that is immunoprecipitated by supplier-prescribed amounts of antiserum (Farese et al., J. Clin. Invest. 117:2289-2301, 2007; Beeson et al., Diabetes 52:1926-1934, 2003).
# Wild type mice were treated with 1.5 mg/kg ICAPP subcutaneously and after 2-30 hours, the mice were treated with 1 U/kg insulin 15 minutes before euthanasia. aPKC activity was determined as described in Example 1.
# PKC-ζ = target: T1, PKC-ζ (Homo sapiens, UniProt Q05513); test: PKC-ζ inhibition; format: biochemical
# T1 construct: purchased Biovision, Mountain View, Calif
# T1 sequence (Q05513 1-592): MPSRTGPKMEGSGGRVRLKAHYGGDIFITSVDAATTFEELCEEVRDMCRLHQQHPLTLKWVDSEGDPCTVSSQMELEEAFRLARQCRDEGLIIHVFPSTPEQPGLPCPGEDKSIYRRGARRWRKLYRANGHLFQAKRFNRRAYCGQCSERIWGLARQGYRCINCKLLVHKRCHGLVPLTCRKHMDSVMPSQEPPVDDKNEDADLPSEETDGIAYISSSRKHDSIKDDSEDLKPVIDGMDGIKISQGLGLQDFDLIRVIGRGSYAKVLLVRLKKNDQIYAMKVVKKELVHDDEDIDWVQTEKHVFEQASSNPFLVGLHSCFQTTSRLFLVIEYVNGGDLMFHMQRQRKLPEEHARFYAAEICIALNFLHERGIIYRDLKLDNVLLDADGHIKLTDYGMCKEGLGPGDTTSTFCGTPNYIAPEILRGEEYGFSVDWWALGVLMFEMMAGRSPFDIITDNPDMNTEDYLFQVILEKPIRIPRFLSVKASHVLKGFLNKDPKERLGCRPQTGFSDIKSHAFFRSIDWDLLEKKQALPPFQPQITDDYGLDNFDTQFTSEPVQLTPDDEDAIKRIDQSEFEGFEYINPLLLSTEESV
# Method: For assays of recombinant PKC-ι and PKC-ζ (10 ng/assay; Biovision, Mountain View, Calif.), […] phosphatidylinositol-3,4,5-(PO4)3 (PIP3; Matreya, Pleasant Gap, Pa.) ±1 ng phosphoinositide-dependent kinase-1 (PDK1; Upstate Cell Signaling) was added to maximally activate and thus better define aPKC activity.
compound,measurement,setting,value
"O=C([O-])CC([S][Au])C(=O)[O-] (stereo not drawn) [ATM, aurothiomalate, reference compound]",inhibition of fully-activated aPKC immunoprecipitated from tissues previously stimulated by insulin,[1],did not inhibit
"NC(=O)c1ncn([C@@H]2C[C@H](CO)[C@@H](O)[C@H]2O)c1N [ICAP, 1H-imidazole-4-carboxamide 5-amino-1-[2,3-dihydroxy-4-[hydroxymethyl]cyclopentyl]-[1R-(1α,2β,3β,4α)]]",10-min-post-insulin serum glucose,Het-MλKO mice,91 ± 8 mg/dL
"NC(=O)c1ncn([C@@H]2C[C@H](COP(=O)(O)O)[C@@H](O)[C@H]2O)c1N [ICAPP, 1H-imidazole-4-carboxamide, 5-amino-1-[2,3-dihydroxy-4-[(phosphonooxy)methyl]cyclopentyl]-[1R-(1α,2β,3β,4α)]]",insulin-stimulated aPKC activity in adipose tissue,aPKC,not in either muscle or adipose tissues
same,insulin-stimulated aPKC activity in liver,aPKC,diminished
same,insulin-stimulated aPKC activity in muscle,aPKC,not in either muscle or adipose tissues
same,inhibition of PKC-ζ,PKC-ζ,not inhibited
